The subject of this experiment is keratinocytes. Description: Active photoprotection against UVA oxidative stress induced on keratinocytes (DCFH-DA fluorescent probe). The class given is cell-based. The note with it: for % of fluorescence relative to the control cells exposed to UVA, TEST 1 / % of fluorescence relative to the control cells exposed to UVA, TEST 2: 24 hours preincubation, DCF fluorescence after UVA; for % of fluorescence relative to the control cells exposed to UVA, Mean: mean of TEST 1 and TEST 2. As to the method: The photoprotection evaluation technique is performed according to a well-known method (J. of Photochemistry and Photobiology B: Biology 57 (2000) 102–112 TOBI et al: Glutathione modulates the level of free radicals produced in UVA irradiated cells). This technique uses a fluorescent probe, a marker of intracellular global oxidative stress, 2′,7′-dichlorofluoresceine diacetate (DCFH-DA).
The use of DCFH-DA as an oxidative stress marker is based on its physicochemical properties. It is a nonionic apolar molecular capable of diffusing across cell membranes. Once inside the cell, DCFH-DA is hydrolysed by intracellular esterases to a non-fluorescent compound: DCFH or […]. In the presence of activated oxygen species, DCFH is rapidly oxidized to a highly fluorescent compound: DCF or 2,7-dichlorofluoresceine.
At confluence, the keratinocytes are incubated in the presence of a compound of formula (I) for 24 hours at 37° C., 5% CO2, in the culture medium, according to a dose effect (3 concentrations).
The keratinocytes, pretreated with a compound of formula (I), are rinsed and then incubated in the presence of DCFH-DA in the dark.
After this incubation, the DCFH-DA solution is removed and the cells are then exposed to UVA.
Comment: a non-exposed control plate is stored in the dark, at room temperature.
The fluorescence of the DCF is evaluated immediately after the exposure to UVA, via spectrofluorimetry (excitation: 480 nm; emission: 530 nm).
The results are expressed as % of fluorescence relative to the control cells exposed to UVA: […]

As to `O=C1NCC(=O)N2C(=O)SCC12` (stereo not shown) [Compound 2, Tetrahydrothiazolo[3,4-a]pyrazine-3,5,8-trione], the “% of fluorescence relative to the control cells exposed to UVA, TEST 1” value runs as follows: (compound at 0.05 mM) 98%; (compound at 0.5 mM) 79%; (compound at 5 mM) 69%. The “% of fluorescence relative to the control cells exposed to UVA, TEST 2” value is 86% (compound at 0.05 mM), 74% (compound at 0.5 mM) and 58% (compound at 5 mM). For the same compound, the “% of fluorescence relative to the control cells exposed to UVA, Mean” value runs as follows: (compound at 0.05 mM) 92%; (compound at 0.5 mM) 76.5%; (compound at 5 mM) 63.5%. Moreover, for the setting “compound at 5 mM, UVA oxidative stress”, the “reduction of fluorescence (optimum efficacy)” value is “about 36%”.

Source of the values: US7022317B2, “Heterocyclic derivatives of 2-oxothiazolidine-4-carboxylic acid, and use as active photoprotective agents” (L'Oreal, priority 2003, dated 2006).
